We go through 1 compound from patent US9040033B2, “Hydroxypropyl methyl cellulose acetate succinate with enhanced acetate and succinate substitution” (Dow Global Technologies LLC, priority 2010, dated 2015).

Data set [1] is described as follows: Microcentrifuge dissolution of 25 wt % phenytoin spray-dried dispersions in MFDS. The class given is physicochemical. The following applies: dissolved phenytoin; SDD or bulk in MFDS pH 6.5, 37° C. From the text:
In another separate embodiment, compositions containing the HPMCAS polymers are concentration enhancing. The term “concentration enhancing” means that the polymer is present in a sufficient amount in the composition so as to improve, or increase, the concentration of dissolved active agent in an aqueous use environment relative to a control composition free from the polymer. As used herein, a “use environment” can be either the in vivo environment of the gastrointestinal tract, subdermal, intranasal, buccal, intrathecal, ocular, intraaural, subcutaneous spaces, vaginal tract, arterial and venous blood vessels, pulmonary tract or intramuscular tissue of an animal, such as a mammal and particularly a human, or the in vitro environment of a test solution, such as phosphate buffered saline (PBS), simulated intestinal buffer without enzymes (SIN), a Model Fasted Duodenal (MFD) solution, or a solution to model the fed state. Concentration enhancement may be determined through either in vitro dissolution tests or through in vivo tests. It has been determined that enhanced active agent concentrations in in vitro dissolution tests in such in vitro test solutions provide good indicators of in vivo performance and bioavailability. An appropriate PBS solution is an aqueous solution comprising 20 mM sodium phosphate (Na2HPO4), 47 mM potassium phosphate (KH2PO4), 87 mM NaCl, and 0.2 mM KCl, adjusted to pH 6.5 with NaOH. An appropriate SIN solution is 50 mM KH2PO4 adjusted to pH 7.4. […] In particular, a composition may be dissolution-tested by adding it to an in vitro test solution and agitating to promote dissolution, or by performing a membrane-permeation test as described in U.S. Published Patent Application No. 2008/0262107, which is incorporated herein by reference. Spray-dried dispersions (SDDs) comprising 25 wt % phenyloin in HPMCAS-K(3), HPMCAS-K(1), HPMCAS-HG, and HPMCAS-LG were prepared as described in section VIII. […] Dissolved concentrations were measured by HPLC.

A short description of data set [2]: Phenytoin precipitation inhibition in PBS containing dissolved polymer. Format: physicochemical. The following applies: PBS pH 6.5, 37° C., 500 μg/mL if all dissolved. On the procedure: Phenyloin was dissolved in methanol at a concentration of 18 mg/mL. The polymers were dissolved in PBS (20 mM sodium phosphate (Na2HPO4), 47 mM potassium phosphate (KH2PO4), 87 mM NaCl, and 0.2 mM KCl, adjusted to pH 6.5 with NaOH) at a concentration of 1.5 mg/mL. […] HPLC was performed using a ZORBAX® RX-C18 column (4.6×75 mm, 3.5 μm, Agilent Technologies) and a mobile phase comprising 0.2% H3PO4 in water, at a flow rate of 1.0 mL/min; 10 μL of each solution was injected. […] HPMCAS-K(3) and HPMCAS-LG have similar degrees of succinate substitution ([…], respectively (see Table 7)), but greatly different degrees of acetate substitution (1.41 and 0.47, respectively).

With `O=C1NC(=O)C(c2ccccc2)(c2ccccc2)N1` [Phenytoin bulk, Phenytoin], the AUC90 is 3,500 min * μg/mL in data set [1] and 6,500 min * μg/mL in data set [2] (dissolved phenytoin, 0-90 min). The C1200 in data set [1] came out at 40 µg/mL; in data set [2] (dissolved phenytoin at 1200 min), 80 µg/mL. Besides, the Cmax90 is 40 µg/mL in data set [1] and 120 µg/mL in data set [2] (dissolved phenytoin, maximum in first 90 min).
